In PMC5146859, “Phase 1/2 study of pacritinib, a next generation JAK2/FLT3 inhibitor, in myelofibrosis or other myeloid malignancies” (Journal of Hematology & Oncology, 2016):
Like-named read-outs stand apart in the source and are kept apart here.

Assays:
[1] = Phase 1 pharmacokinetics (liquid chromatography/tandem mass spectrometry); assay type: in vivo, human; design: C24h, Mean / C24h, Median: unit not given here; conditions: for AUC(0-t) / Cmax / Tmax: human, in vivo
Protocol: In phase 1, full PK sampling was performed on days 1 and 15 of cycle 1 and day 1 of cycle 2. Trough PK samples were drawn prior to dosing on days 8 and 22 of cycle 1 and at 24, 48, and 72 h after dosing on day 25 of cycle 1. A sample was collected before dosing on day 1 of cycles 4, 7, and 10. Pacritinib concentrations were determined using a validated liquid chromatography/tandem mass spectrometry method. An analysis of clinical exposures from the HCl and citrate salts of pacritinib was performed comparing Day 1 PK data from 12 patients who received the HCl salt formulation in the 200 mg cohorts of this study and two other pacritinib studies [NCT00741871 and NCT00745550]) with six patients in the 200 mg cohort of this study who received the citrate salt formulation.

[2] = tested on: patients with advanced myeloid malignancies (MF, AML); test: Phase 1 clinical benefit rate (IWG criteria); assay type: in vivo, human
Protocol: At screening/baseline, patients underwent a medical history, physical examination, vital sign assessment, ECOG PS assessment, electrocardiogram, and assessment of hematologic parameters and blood chemistry. Hematology/blood chemistry, physical examinations, and vital sign assessments were performed throughout treatment. Toxicity was assessed using the National Cancer Institute Common Terminology Criteria for Adverse Events (NCIC-CTCAE), version 3.0, with relationship to treatment assigned by the investigator and were recorded from the first dose of pacritinib until 30 days after the last dose. Bone marrow biopsy and/or aspirate samples were drawn at baseline, on day 1 of cycle 4 and cycle 10, as clinically indicated, and at the termination visit. Disease response and progression were determined using the relevant International Working Group (IWG) criteria. The primary objective of phase 1 was to establish the MTD of pacritinib in patients with advanced myeloid malignancies, defined as the highest dose level at which no more than one out of six patients in the cohort experienced a DLT during cycle 1 ([…]) of therapy. […] Secondary objectives in phase 1 of the study included safety and PK analysis. Clinical benefit rate was assessed as an exploratory endpoint, defined as the proportion of patients who experienced a complete response, partial response, clinical improvement, or stable disease (SD) during the study.

[3] = phase 1, Day 1, 200 mg (HCl and citrate salt cohorts pooled)
[4] = phase 1, Day 15, 200 mg (HCl and citrate salt cohorts pooled)

## C1=C/COCc2cc(ccc2OCCN2CCCC2)Nc2nccc(n2)-c2cccc(c2)COC/1 [pacritinib, 11-(2-pyrrolidin-1-yl-ethoxy)-14,19-dioxa-5,7,26-triaza-tetracyclo[19.3.1.1(2,6). 1(8,12)]heptacosa-1(25),2(26),3,5,8,10,12(27),16,21,23-decaene]
[1]; 200 mg, day 1, 6 patients citrate vs 12 patients HCl
  Mean PK profiles, citrate vs HCl salts: similar
[1]; oral, 100 mg, phase 1, Day 1, 100 mg, read-out: AUC0-24h, Mean
  AUC(0-t): 65.9 µg·h/mL
[1]; oral, 100 mg, phase 1, Day 1, 100 mg, read-out: AUC0-24h, Median
  AUC(0-t): 56 µg·h/mL
[1]; oral, 100 mg, phase 1, Day 1, 100 mg, read-out: Cmax, Mean
  Cmax: 3700 ng/mL
[1]; oral, 100 mg, phase 1, Day 1, 100 mg, read-out: Cmax, Median
  Cmax: 2910 ng/mL
[1]; oral, 100 mg, phase 1, Day 1, 100 mg, read-out: Tmax, Median
  Tmax: 5 h
[1]; oral, 100 mg, phase 1, Day 15, 100 mg, read-out: AUC0-24h, Mean
  AUC(0-t): 120 µg·h/mL
[1]; oral, 100 mg, phase 1, Day 15, 100 mg, read-out: AUC0-24h, Median
  AUC(0-t): 121 µg·h/mL
[1]; oral, 100 mg, phase 1, Day 15, 100 mg, read-out: Cmax, Mean
  Cmax: 6360 ng/mL
[1]; oral, 100 mg, phase 1, Day 15, 100 mg, read-out: Cmax, Median
  Cmax: 6180 ng/mL
[1]; oral, 100 mg, phase 1, Day 15, 100 mg, read-out: Tmax, Median
  Tmax: 3 h
[1]; oral, 150 mg, phase 1, Day 1, 150 mg, read-out: AUC0-24h, Mean
  AUC(0-t): 64.7 µg·h/mL
[1]; oral, 150 mg, phase 1, Day 1, 150 mg, read-out: AUC0-24h, Median
  AUC(0-t): 69.2 µg·h/mL
[1]; oral, 150 mg, phase 1, Day 1, 150 mg, read-out: Cmax, Mean
  Cmax: 3720 ng/mL
[1]; oral, 150 mg, phase 1, Day 1, 150 mg, read-out: Cmax, Median
  Cmax: 3790 ng/mL
[1]; oral, 150 mg, phase 1, Day 15, 150 mg, read-out: AUC0-24h, Mean
  AUC(0-t): 140 µg·h/mL
[1]; oral, 150 mg, phase 1, Day 15, 150 mg, read-out: AUC0-24h, Median
  AUC(0-t): 114 µg·h/mL
[1]; oral, 150 mg, phase 1, Day 15, 150 mg, read-out: Cmax, Mean
  Cmax: 6700 ng/mL
[1]; oral, 150 mg, phase 1, Day 15, 150 mg, read-out: Cmax, Median
  Cmax: 5410 ng/mL
[1]; oral, 150 mg, phase 1, Day 15, 150 mg, read-out: Tmax, Median
  Tmax: 2.5 h
[1]; oral, 300 mg, phase 1, Day 1, 300 mg, read-out: AUC0-24h, Mean
  AUC(0-t): 87.1 µg·h/mL
[1]; oral, 300 mg, phase 1, Day 1, 300 mg, read-out: AUC0-24h, Median
  AUC(0-t): 98.2 µg·h/mL
[1]; oral, 300 mg, phase 1, Day 1, 300 mg, read-out: Cmax, Mean
  Cmax: 5240 ng/mL
[1]; oral, 300 mg, phase 1, Day 1, 300 mg, read-out: Cmax, Median
  Cmax: 5830 ng/mL
[1]; oral, 300 mg, phase 1, Day 15, 300 mg, read-out: AUC0-24h, Mean
  AUC(0-t): 133 µg·h/mL
[1]; oral, 300 mg, phase 1, Day 15, 300 mg, read-out: AUC0-24h, Median
  AUC(0-t): 134 µg·h/mL
[1]; oral, 300 mg, phase 1, Day 15, 300 mg, read-out: Cmax, Mean
  Cmax: 6410 ng/mL
[1]; oral, 300 mg, phase 1, Day 15, 300 mg, read-out: Cmax, Median
  Cmax: 6860 ng/mL
[1]; oral, 400 mg, phase 1, Day 1, 400 mg, read-out: AUC0-24h, Mean
  AUC(0-t): 127 µg·h/mL
[1]; oral, 400 mg, phase 1, Day 1, 400 mg, read-out: AUC0-24h, Median
  AUC(0-t): 118 µg·h/mL
[1]; oral, 400 mg, phase 1, Day 1, 400 mg, read-out: Cmax, Mean
  Cmax: 6280 ng/mL
[1]; oral, 400 mg, phase 1, Day 1, 400 mg, read-out: Cmax, Median
  Cmax: 5640 ng/mL
[1]; oral, 400 mg, phase 1, Day 1, 400 mg, read-out: Tmax, Median
  Tmax: 8 h
[1]; oral, 400 mg, phase 1, Day 15, 400 mg, read-out: AUC0-24h, Mean
  AUC(0-t): 203 µg·h/mL
[1]; oral, 400 mg, phase 1, Day 15, 400 mg, read-out: AUC0-24h, Median
  AUC(0-t): 240 µg·h/mL
[1]; oral, 400 mg, phase 1, Day 15, 400 mg, read-out: Cmax, Mean
  Cmax: 9770 ng/mL
[1]; oral, 400 mg, phase 1, Day 15, 400 mg, read-out: Cmax, Median
  Cmax: 11700 ng/mL
[1]; oral, 500 mg, phase 1, Day 1, 500 mg, read-out: AUC0-24h, Mean
  AUC(0-t): 141 µg·h/mL
[1]; oral, 500 mg, phase 1, Day 1, 500 mg, read-out: AUC0-24h, Median
  AUC(0-t): 118 µg·h/mL
[1]; oral, 500 mg, phase 1, Day 1, 500 mg, read-out: Cmax, Mean
  Cmax: 7050 ng/mL
[1]; oral, 500 mg, phase 1, Day 1, 500 mg, read-out: Cmax, Median
  Cmax: 6310 ng/mL
[1]; oral, 500 mg, phase 1, Day 15, 500 mg, read-out: AUC0-24h, Mean
  AUC(0-t): 178 µg·h/mL
[1]; oral, 500 mg, phase 1, Day 15, 500 mg, read-out: AUC0-24h, Median
  AUC(0-t): 161 µg·h/mL
[1]; oral, 500 mg, phase 1, Day 15, 500 mg, read-out: Cmax, Mean
  Cmax: 8730 ng/mL
[1]; oral, 500 mg, phase 1, Day 15, 500 mg, read-out: Cmax, Median
  Cmax: 7990 ng/mL
[1]; oral, 600 mg, phase 1, Day 1, 600 mg, read-out: AUC0-24h, Mean
  AUC(0-t): 136 µg·h/mL
[1]; oral, 600 mg, phase 1, Day 1, 600 mg, read-out: AUC0-24h, Median
  AUC(0-t): 129 µg·h/mL
[1]; oral, 600 mg, phase 1, Day 1, 600 mg, read-out: Cmax, Mean
  Cmax: 8330 ng/mL
[1]; oral, 600 mg, phase 1, Day 1, 600 mg, read-out: Cmax, Median
  Cmax: 7880 ng/mL
[1]; oral, 600 mg, phase 1, Day 1, 600 mg, read-out: Tmax, Median
  Tmax: 4.5 h
[1]; oral, 600 mg, phase 1, Day 15, 600 mg, read-out: AUC0-24h, Mean
  AUC(0-t): 161 µg·h/mL
[1]; oral, 600 mg, phase 1, Day 15, 600 mg, read-out: AUC0-24h, Median
  AUC(0-t): 161 µg·h/mL
[1]; oral, 600 mg, phase 1, Day 15, 600 mg, read-out: Cmax, Mean
  Cmax: 9220 ng/mL
[1]; oral, 600 mg, phase 1, Day 15, 600 mg, read-out: Cmax, Median
  Cmax: 8560 ng/mL
[1]; oral, phase 1, day 1, 100-600 mg, read-out: Median time to maximum concentration (Tmax), range over dose cohorts
  Tmax: 4 to 8 h
[1]; oral, phase 1, day 15, 100-600 mg, read-out: Median time to maximum concentration (Tmax), range over dose cohorts
  Tmax: 2.5 to 5 h
[1]; po, 200 mg, phase 1, Day 1, 200 mg (HCl and citrate salt cohorts pooled), read-out: AUC0-24h, Mean
  AUC(0-t): 93.3 µg·h/mL
[1]; po, 200 mg, phase 1, Day 1, 200 mg (HCl and citrate salt cohorts pooled), read-out: AUC0-24h, Median
  AUC(0-t): 87.3 µg·h/mL
[1]; po, 200 mg, phase 1, Day 1, 200 mg (HCl and citrate salt cohorts pooled), read-out: Cmax, Mean
  Cmax: 5000 ng/mL
[1]; po, 200 mg, phase 1, Day 1, 200 mg (HCl and citrate salt cohorts pooled), read-out: Cmax, Median
  Cmax: 4570 ng/mL
[1]; po, 200 mg, phase 1, Day 1, 200 mg (HCl and citrate salt cohorts pooled), read-out: Tmax, Median
  Tmax: 5 h
[1]; po, 200 mg, phase 1, Day 15, 200 mg (HCl and citrate salt cohorts pooled), read-out: AUC0-24h, Mean
  AUC(0-t): 125 µg·h/mL
[1]; po, 200 mg, phase 1, Day 15, 200 mg (HCl and citrate salt cohorts pooled), read-out: AUC0-24h, Median
  AUC(0-t): 130 µg·h/mL
[1]; po, 200 mg, phase 1, Day 15, 200 mg (HCl and citrate salt cohorts pooled), read-out: Cmax, Mean
  Cmax: 6700 ng/mL
[1]; po, 200 mg, phase 1, Day 15, 200 mg (HCl and citrate salt cohorts pooled), read-out: Cmax, Median
  Cmax: 6450 ng/mL
[1]; po, 200 mg, phase 1, Day 15, 200 mg (HCl and citrate salt cohorts pooled), read-out: Tmax, Median
  Tmax: 5 h
[1]; phase 1, Day 1, 100 mg
  C24h, Mean: 2440
  C24h, Median: 2318
[1]; phase 1, Day 1, 150 mg
  C24h, Mean: 3113
  C24h, Median: 2316
[1]; [3]
  C24h, Mean: 3921
  C24h, Median: 3026
[1]; phase 1, Day 1, 300 mg
  C24h, Mean: 4213
  C24h, Median: 3528
[1]; phase 1, Day 1, 400 mg
  C24h, Mean: 5644
  C24h, Median: 4725
[1]; phase 1, Day 1, 500 mg
  C24h, Mean: 5899
  C24h, Median: 4417
[1]; phase 1, Day 1, 600 mg
  C24h, Mean: 5093
  C24h, Median: 4136
[1]; phase 1, Day 15, 100 mg
  C24h, Mean: 3945
  C24h, Median: 4322
[1]; phase 1, Day 15, 150 mg
  C24h, Mean: 5428
  C24h, Median: 5026
[1]; [4]
  C24h, Mean: 4852
  C24h, Median: 4993
[1]; phase 1, Day 15, 300 mg
  C24h, Mean: 4965
  C24h, Median: 4850
[1]; phase 1, Day 15, 400 mg
  C24h, Mean: 8429
  C24h, Median: 10168
[1]; phase 1, Day 15, 500 mg
  C24h, Mean: 6550
  C24h, Median: 5685
[1]; phase 1, Day 15, 600 mg
  C24h, Mean: 6439
  C24h, Median: 5417
[1]; phase 1, day 1
  Between-patient coefficient of variation for Cmax and AUC0–24: 25 to 63%
  Dose proportionality of exposure (Cmax, C24, AUC0–24): less than dose-proportional
[1]; phase 1, day 15
  Between-patient coefficient of variation for Cmax and AUC0–24: 20–54%
  Dose dependence of exposure (Cmax, C24, AUC0–24): plateau above the 400 mg dose level
[2]; phase 1
  Dose–response correlation of clinical benefit: No clear dose–response correlation was observed
[2]; phase 1, n = 43
  Overall clinical benefit rate: 86.0%
  Patients achieving clinical improvement: 13 patients
  Patients having stable disease: 24 patients
[2]; phase 1, patients with AML (3/7)
  Clinical benefit rate: 42.9%
[2]; phase 1, patients with MF (34/36)
  Clinical benefit rate: 94.4%
